Test system: APP processing
Test: Immunoblot of APP processing (FIG. 12)
Excerpt: FIG. 12 illustrates an immunoblot showing the effects ISP in combination with a γ-secretase inhibitor on APP processing compared to a γ-secretase inhibitor administered alone or a BACE1 inhibitor administered in combination with a γ-secretase inhibitor. […]

NH2GRKKRRQRRRCDMAEHTMERLKANDSLKLSQEYESI-NH2 [ISP]
effect on APP processing (immunoblot) (ISP in combination with a γ-secretase inhibitor, compared to a γ-secretase inhibitor alone or a BACE1 inhibitor in combination with a γ-secretase inhibitor): substantially inhibited APP processing | suppression of APP amyloidogenic processing by BACE1 (blocking PTPσ with wedge domain peptide mimetic, compared with PTPσ depletion): suppress APP amyloidogenic processing by BACE1, to a similar degree as PTPσ depletion
